Laboratory results published in ChEMBL document CHEMBL3301546, “MMV Malaria Box yeast growth screening”.

What was measured:
Type in all cases: functional
Saccharomyces cerevisiae [1] = assay: (§1) MMV: Growth assays were conducted using the prototrophic S. cerevisiae strain JHY222. Each MMV compound (0.1 mM) was tested in rich media containing dextrose as a carbon source (Yeast Extract, Peptone, Dextrose; YPD). The growth rate in the presence of each MMV compound was calculated as follows: (i) the first 10 OD readings were averaged and subtracted from all OD readings of the corresponding curve to set the baseline of the growth curve to zero, and (ii) the area under the curve (AUC) was then calculated as the sum of all OD readings. […] A relative growth value was calculated as follows: AUC(DRUG) - AUC(DMSO)/AUC(DMSO); where AUC(DMSO) represents growth measured in a DMSO control well that was on the same microtiter plate of the drug-treated culture.
Saccharomyces cerevisiae [2] = assay: as §1, with “minimal” for “rich”, “ethanol and glycerol” for “dextrose”, “as” for “as a”, “sources” for “source”, “Nitrogen Base, Ethanol, Glycerol; YNBEG).” for “Extract, Peptone, Dextrose; YPD).”
Saccharomyces cerevisiae [3] = assay: as §1, with “minimal” for “rich”, “Nitrogen Base,” for “Extract, Peptone,”, “YNBD).” for “YPD).”

SMILES | Relative Growth (Saccharomyces cerevisiae [1]) | Relative Growth (Saccharomyces cerevisiae [2]) | Relative Growth (Saccharomyces cerevisiae [3])
Cc1ccc(F)cc1NC(=O)c1cc(Cl)ccc1Nc1ccccc1 | -0.0355 | 0.1227 | -0.0972
Brc1ccc(Nc2nc3ccccc3nc2Nc2ccc(Br)cc2)cc1 | -0.9981 | -0.5592 | -0.0577
COc1ccc(-c2cc3c(nn2)-c2ccccc2C3=O)cc1 | 0.0333 | -0.8829 | -0.3119
CCN1CCN(c2c(C(=O)c3ccccc3)cnc3cc(OC)c(OC)cc23)CC1 | -0.0459 | -0.2869 | 0.0169
Cc1ccnc(NC(c2cccc(OCc3ccccc3)c2)c2ccc3cccnc3c2O)c1 (configuration not stated) | 0 | -0.3469 | 0.0892
COCCNCC(O)Cn1c2ccc(Cl)cc2c2cc(Cl)ccc21 (configuration not stated) | -0.9998 | -0.4771 | -0.1893
COc1ccc(CCNC(=O)c2cc(S(=O)(=O)N3CC(C)CC(C)C3)ccc2Sc2ccc(F)cc2)cc1OC (configuration not stated) | -0.1625 | -0.0984 | -0.1001
Cc1cc(Nc2ccc(OCc3ccccc3)cc2)nc2cc(O)ccc12 | 0.0868 | 0.3239 | -0.1895
O=C1CC(O)(C(F)(F)C(F)(F)F)Oc2ccccc21 (configuration not stated) | -0.0644 | -0.6809 | -0.042
Cc1cc(NC(=O)C2c3ccccc3C(=O)N(CC(C)C)C2c2cccs2)no1 (configuration not stated) | -0.03 | -0.0882 | -0.0434
CC(C)c1ccc(CNCC(O)c2ccccc2)cc1.Cl (configuration not stated) | -0.02 | 0.0017 | 0.1145
CCOc1cc2c(cc1OCC)C(c1cc(Cl)ccc1O)NCC2 (configuration not stated) | -0.0098 | -0.522 | 0.0319
CCOc1ccc(N2C(N)=NC(N)=NC2(C)C)cc1.Cl | -0.0058 | 0.0602 | -0.1178
COc1ccc(C(=O)NC(c2ccccc2Cl)c2cc(Cl)c3cccnc3c2O)cc1 (configuration not stated) | -0.3676 | -1.0144 | -1.0012
O=C(NC1CCN(Cc2ccccc2)CC1)c1cc(C(=O)NC2CCN(Cc3ccccc3)CC2)cc(C(=O)NC2CCN(Cc3ccccc3)CC2)c1 | -0.0223 | -0.1727 | 0.0347
CN(C)c1ccc(C=Cc2nc(=O)c3ccccc3o2)cc1 | -0.0054 | 0.0299 | -0.0045
CCOC(=O)C1=CN(C)C=C(C(=O)OCC)C1c1cc(Br)c(OCC)c(OC)c1 | -0.1817 | -0.4757 | 0.2106
OCCNc1nc(Nc2ccc(Cl)c(Cl)c2)nc2ccccc12 | 0.0231 | 0.0602 | -0.1441
Cc1ccc(C(=O)c2oc3ccc4c(C)cc(=O)oc4c3c2C)cc1 | -0.0457 | -0.1519 | -0.0077
O=C(O)C1Cc2c([nH]c3ccccc23)C(c2ccc(Cl)cc2Cl)N1 (configuration not stated) | -0.035 | 0.1085 | -0.0148
COCCn1c(C)nc2ccccc2c1=O | -0.0038 | -0.2443 | 0.0485
COc1ccc(C=C2SC(=N)N(c3ccccc3OC)C2=O)cc1 | -0.083 | -0.0639 | -0.0085

SMILES | Relative Growth (Saccharomyces cerevisiae [1]) | Relative Growth (Saccharomyces cerevisiae [2]) | Relative Growth (Saccharomyces cerevisiae [3])
COC(=O)c1ccc(Cl)c2c1C1C=CCC1C(c1cccc3ccccc13)N2 (configuration not stated) | -0.0285 | 0.0199 | 0.053
OC(CNC1CCCCC1)Cn1c2ccc(I)cc2c2cc(I)ccc21 (configuration not stated) | 0.0125 | -0.0994 | 0.4002
CCOc1cccc(C(=O)Nc2ccc(-c3nc4ccccc4[nH]3)cc2)c1 | -0.0469 | 0.032 | 0.0858
COc1ccc2sc(N(Cc3cccnc3)C(=O)c3ccc(C#N)cc3)nc2c1 | -0.0469 | -0.5371 | -0.1064
CCOc1c(Cl)cc(CNC(C)C(O)c2ccccc2)cc1OC (configuration not stated) | -0.0562 | 0.1383 | -0.05
CCN(CC)CCNc1ncnc2c1[nH]c1ccc(Cl)cc12 | -0.0494 | 0.0317 | 0.0885
CN1CCN(c2ccc(Nc3c4ccccc4nc4ccccc34)cc2)CC1 | 0.031 | 0.1233 | 0.0237
COc1ccc(-c2cc3c(SCC(=O)Nc4cc(C(F)(F)F)ccc4Cl)nccn3n2)cc1 | -0.0822 | -0.1809 | 0.0829
COc1cc2cc(C(=O)Nc3ccccc3)c(N)nc2cc1OC | -1.0109 | 0.0392 | -0.0986
CCN(CC)CCn1c(=N)n(CC(O)c2ccc(Cl)c(Cl)c2)c2ccccc21.Cl (configuration not stated) | -0.0663 | 0.1274 | 0.0285
CC1CCN(Cc2c(O)ccc3cc(-c4nc5ccccc5s4)c(=O)oc23)CC1 | -0.0068 | -0.3243 | -0.0399
COc1cccc(C(=O)Nc2ccc(-c3nc4ccccc4[nH]3)cc2)c1 | -0.0256 | 0.0109 | 0.0184
CC(=O)c1ccc(NC(=O)CSc2nc(-c3ccccc3Cl)ns2)cc1 | -0.0294 | 0.0011 | 0.0088
O=C(O)C(=O)O.Oc1ccc(Br)cc1CN1CCN(Cc2cccc(F)c2)CC1 | -0.1015 | -0.3839 | -0.047
O=C(Nc1ccc(CN2CCOCC2)cc1)c1ccc(-c2ccc(Br)cc2)o1 | -0.0599 | -0.1653 | -0.3783
COc1ccc(-c2nc(NC(=O)CS(=O)(=O)c3ccc(F)cc3)sc2C)cc1 | 0.0127 | 0.1484 | 0.0372
O=C1c2ccccc2C2=Nc3ccccc3SC(c3cccc(F)c3)C12 (configuration not stated) | 0.0574 | -0.2808 | -0.0716
Cc1ccc(CN2CCC(C(=O)Nc3ccc(-c4cc5ccccc5[nH]4)cc3)CC2)o1 | 0.0612 | -0.0247 | -0.0113
COc1ccc(CCn2c(=N)c(C(=O)NCc3cccnc3)cc3c(=O)n4cccc(C)c4nc32)cc1 | 0.0999 | -0.1242 | 0.0391
Cc1cc(NC(=O)c2cccc(C(F)(F)F)c2)n(-c2nc(-c3ccc4c(c3)OCO4)cs2)n1 | -0.007 | -0.0763 | -0.0865
COc1ccc(Nc2cc(C)nc(NCc3ccccc3)n2)cc1 | 0.0201 | 0.0325 | 0.0189
O=C(NC1CCCC1)c1ccc(N2CCC(NCc3cccc(C(F)(F)F)c3)CC2)cc1 | 0.09 | -0.7428 | -0.054
